Laboratory results published in patent US11149018B2, “Substituted N-arylethyl-2-aminoquinoline-4-carboxamides and use thereof” (Bayer Aktiengesellschaft, priority 2017, dated 2021).

Target: FP receptor (Homo sapiens (Human), UniProt P43088)
Test: In vitro test of inhibition of human FP receptor activity (PGF2α-induced calcium flux in FP-expressing CHEM1 cells)
Format: cell-based
Conditions: PGF2α 2 nM, some mean values of multiple determinations
Procedure: B-1. In Vitro Test of Inhibition of Human FP Receptor Activity
For the characterization of test substances in respect of FP antagonism, PGF2α-induced calcium flux in FP-expressing CHEM1 cells (Millipore, HTS093C) was used.
10 μl of the prediluted substance solution are added to the Fluo-8-laden cells and incubated at 37° C., 5% CO2 for 10 minutes. The FP receptor is activated by adding 40 μl of 2 nM (final concentration) PGF2α in calcium-free Tyrode, 2 mM CaCl2, 0.002% SmartBlock, and the calcium flux is determined by measuring the fluorescence at ex. 470 nm/[…].
Table 1 below lists the IC50 values from this assay for individual working examples of the invention (some as mean values from multiple independent individual determinations): […]

Sequence of FP receptor (P43088 whole entry): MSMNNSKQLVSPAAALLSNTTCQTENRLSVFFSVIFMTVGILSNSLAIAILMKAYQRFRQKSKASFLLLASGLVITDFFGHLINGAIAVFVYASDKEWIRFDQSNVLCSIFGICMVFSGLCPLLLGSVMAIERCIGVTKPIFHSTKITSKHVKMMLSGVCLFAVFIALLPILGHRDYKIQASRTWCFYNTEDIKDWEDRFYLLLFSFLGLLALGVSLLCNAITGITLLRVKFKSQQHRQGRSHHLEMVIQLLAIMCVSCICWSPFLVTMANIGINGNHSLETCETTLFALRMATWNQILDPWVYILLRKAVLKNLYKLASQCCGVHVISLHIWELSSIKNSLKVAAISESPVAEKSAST

IC50 [nM]	Compound
22	Cc1c(N2CCSCC2)nc2ccc(Br)cc2c1C(=O)NCC(CCC(=O)O)c1ccccc1Cl (racemic) [Example 25, (+/−)-5-({[6-Bromo-3-methyl-2-(thiomorpholin-4-yl)quinolin-4-yl]carbonyl}amino)-4-(2-chlorophenyl)pentanoic acid]
31	Cc1c(N2CCC(F)(F)CC2)nc2ccc(Br)cc2c1C(=O)NCC(CCC(=O)O)c1ccccc1Cl (racemic) [Example 28, (+/−)-5-({[6-Bromo-2-(4,4-difluoropiperidin-1-yl)-3-methylquinolin-4-yl]carbonyl}amino)-4-(2-chlorophenyl)pentanoic acid]
22	Cc1c(N2CC=CCC2)nc2ccc(Br)cc2c1C(=O)NCC(CCC(=O)O)c1ccccc1Cl (racemic) [Example 29, (+/−)-5-({[6-Bromo-2-(3,6-dihydropyridin-1(2H)-yl)-3-methylquinolin-4-yl]carbonyl}amino)-4-(2-chlorophenyl)pentanoic acid]
48	Cc1c(N2CCCCO2)nc2ccc(Br)cc2c1C(=O)NCC(CCC(=O)O)c1ccccc1Cl (racemic) [Example 32, (+/−)-5-({[6-Bromo-3-methyl-2-(1,2-oxazinan-2-yl)quinolin-4-yl]carbonyl}amino)-4-(2-chlorophenyl)pentanoic acid]
22	Cc1c(N2CCC(F)(F)C2)nc2ccc(Br)cc2c1C(=O)NCC(CCC(=O)O)c1ccccc1Cl (racemic) [Example 37, (+/−)-5-({[6-Bromo-2-(3,3-difluoropyrrolidin-1-yl)-3-methylquinolin-4-yl]carbonyl}amino)-4-(2-chlorophenyl)pentanoic acid]
110	Cc1c(N2CCCO2)nc2ccc(Br)cc2c1C(=O)NCC(CCC(=O)O)c1ccccc1Cl (racemic) [Example 38, (+/−)-5-({[6-Bromo-3-methyl-2-(1,2-oxazolidin-2-yl)quinolin-4-yl]carbonyl}amino)-4-(2-chlorophenyl)pentanoic acid]
130	Cc1c(N2CCCC(C)(C)C2)nc2ccc(Br)cc2c1C(=O)NCC(CCC(=O)O)c1ccccc1Cl (racemic) [Example 42, (+/−)-5-({[6-Bromo-2-(3,3-dimethylpiperidin-1-yl)-3-methylquinolin-4-yl]carbonyl}amino)-4-(2-chlorophenyl)pentanoic acid]
3	Cc1c(N2CCCC(F)(F)C2)nc2ccc(Br)cc2c1C(=O)NCC(CCC(=O)O)c1ccccc1Cl (racemic) [Example 50, (+/−)-5-({[6-Bromo-2-(3,3-difluoropiperidin-1-yl)-3-methylquinolin-4-yl]carbonyl}amino)-4-(2-chlorophenyl)pentanoic acid]
850	Cc1c(N2CCN(C)CC2)nc2ccc(Br)cc2c1C(=O)NCC(CCC(=O)O)c1ccccc1Cl (racemic) [Example 54, (+/−)-5-({[6-Bromo-3-methyl-2-(4-methylpiperazin-1-yl)quinolin-4-yl]carbonyl}amino)-4-(2-chlorophenyl)pentanoic acid]
16	Cc1c(N2C[C@@H](F)[C@@H](F)C2)nc2ccc(Br)cc2c1C(=O)NCC(CCC(=O)O)c1ccccc1Cl (mixture of isomers) [Example 70, (+/−)-5-[({6-Bromo-2-[cis-3,4-difluoropyrrolidin-1-yl]-3-methylquinolin-4-yl}carbonyl)amino]-4-(2-chlorophenyl)pentanoic acid]
80	Cc1c(N2CC(F)(F)C(F)(F)C2)nc2ccc(Br)cc2c1C(=O)NCC(CCC(=O)O)c1ccccc1Cl (racemic) [Example 72, (+/−)-5-({[6-Bromo-3-methyl-2-(3,3,4,4-tetrafluoropyrrolidin-1-yl)quinolin-4-yl]carbonyl}amino)-4-(2-chlorophenyl)pentanoic acid]
170	Cc1c(N2CC3CCC(C3)C2)nc2ccc(Br)cc2c1C(=O)NCC(CCC(=O)O)c1ccccc1Cl (racemic) [Example 74, (+/−)-5-[({2-[3-Azabicyclo[3.2.1]oct-3-yl]-6-bromo-3-methylquinolin-4-yl}carbonyl)amino]-4-(2-chlorophenyl)pentanoic acid]
66	Cc1c(N2CC=CCO2)nc2ccc(Br)cc2c1C(=O)NCC(CCC(=O)O)c1ccccc1Cl (racemic) [Example 77, (+/−)-5-({[6-Bromo-2-(3,6-dihydro-2H-1,2-oxazin-2-yl)-3-methylquinolin-4-yl]carbonyl}amino)-4-(2-chlorophenyl)pentanoic acid]
28	Cc1c(N2CCc3ccccc3C2)nc2ccc(Br)cc2c1C(=O)NCC(CCC(=O)O)c1ccccc1Cl (racemic) [Example 84, (+/−)-5-({[6-Bromo-2-(3,4-dihydroisoquinolin-2(1H)-yl)-3-methylquinolin-4-yl]carbonyl}amino)-4-(2-chlorophenyl)pentanoic acid]
330	Cc1c(N2CC3CCCCC3C2)nc2ccc(Br)cc2c1C(=O)NCC(CCC(=O)O)c1ccccc1Cl (racemic) [Example 86, (+/−)-5-({[6-Bromo-3-methyl-2-(octahydro-2H-isoindol-2-yl)quinolin-4-yl]carbonyl}amino)-4-(2-chlorophenyl)pentanoic acid]
550	Cc1c(N2CCS(=O)(=O)CC2)nc2ccc(Br)cc2c1C(=O)NCC(CCC(=O)O)c1ccccc1Cl (racemic) [Example 87, (+/−)-5-({[6-Bromo-2-(1,1-dioxidothiomorpholin-4-yl)-3-methylquinolin-4-yl]carbonyl}amino)-4-(2-chlorophenyl)pentanoic acid]
880	Cc1c(N2CNC(=O)C2)nc2ccc(Br)cc2c1C(=O)NCC(CCC(=O)O)c1ccccc1Cl (racemic) [Example 88, (+/−)-5-({[6-Bromo-3-methyl-2-(4-oxoimidazolidin-1-yl)quinolin-4-yl]carbonyl}amino)-4-(2-chlorophenyl)pentanoic acid]
59	Cc1c(N2CCCOCC2)nc2ccc(Br)cc2c1C(=O)NCC(CCC(=O)O)c1ccccc1Cl (racemic) [Example 90, (+/−)-5-({[6-Bromo-3-methyl-2-(1,4-oxazepan-4-yl)quinolin-4-yl]carbonyl}amino)-4-(2-chlorophenyl)pentanoic acid]
390	COC1CN(c2nc3ccc(Br)cc3c(C(=O)NCC(CCC(=O)O)c3ccccc3Cl)c2C)C1 (racemic) [Example 92, (+/−)-5-({[6-Bromo-2-(3-methoxyazetidin-1-yl)-3-methylquinolin-4-yl]carbonyl}amino)-4-(2-chlorophenyl)pentanoic acid]
15	Cc1c(NCCc2ccccc2)nc2ccc(Br)cc2c1C(=O)NCC(CCC(=O)O)c1ccccc1Cl (racemic) [Example 94, (+/−)-5-[({6-Bromo-3-methyl-2-[(2-phenylethyl)amino]quinolin-4-yl}carbonyl)amino]-4-(2-chlorophenyl)pentanoic acid]
65	Cc1c(N(C)CCc2ccccc2)nc2ccc(Br)cc2c1C(=O)NCC(CCC(=O)O)c1ccccc1Cl (racemic) [Example 95, (+/−)-5-[({6-Bromo-3-methyl-2-[methyl(2-phenylethyl)amino]quinolin-4-yl}carbonyl)amino]-4-(2-chlorophenyl)pentanoic acid]
950	Cc1c(NCc2ccccc2)nc2ccc(Br)cc2c1C(=O)NCC(CCC(=O)O)c1ccccc1Cl (racemic) [Example 96, (+/−)-5-({[2-(Benzylamino)-6-bromo-3-methylquinolin-4-yl]carbonyl}amino)-4-(2-chlorophenyl)pentanoic acid]
530	Cc1c(NC2CCC2)nc2ccc(Br)cc2c1C(=O)NCC(CCC(=O)O)c1ccccc1Cl (racemic) [Example 97, (+/−)-5-({[6-Bromo-2-(cyclobutylamino)-3-methylquinolin-4-yl]carbonyl}amino)-4-(2-chlorophenyl)pentanoic acid]
530	Cc1c(NCCC(F)(F)F)nc2ccc(Br)cc2c1C(=O)NCC(CCC(=O)O)c1ccccc1Cl (racemic) [Example 98, (+/−)-5-[({6-Bromo-3-methyl-2-[(3,3,3-trifluoropropyl)amino]quinolin-4-yl}carbonyl)amino]-4-(2-chlorophenyl)pentanoic acid]
500	Cc1c(NCC2CCCCC2)nc2ccc(Br)cc2c1C(=O)NCC(CCC(=O)O)c1ccccc1Cl (racemic) [Example 99, (+/−)-5-[({6-Bromo-2-[(cyclohexylmethyl)amino]-3-methylquinolin-4-yl}carbonyl)amino]-4-(2-chlorophenyl)pentanoic acid]
340	Cc1c(NCC2CC2)nc2ccc(Br)cc2c1C(=O)NCC(CCC(=O)O)c1ccccc1Cl (racemic) [Example 100, (+/−)-5-[({6-Bromo-2-[(cyclopropylmethyl)amino]-3-methylquinolin-4-yl}carbonyl)amino]-4-(2-chlorophenyl)pentanoic acid]

Compound	IC50 [nM]
CCC1CCCN(c2nc3ccc(Br)cc3c(C(=O)NCC(CCC(=O)O)c3ccccc3Cl)c2C)C1 (racemic) [Example 57, (+/−)-5-[({6-Bromo-2-[3-ethylpiperidin-1-yl]-3-methylquinolin-4-yl}carbonyl)amino]-4-(2-chlorophenyl)pentanoic acid]	0.84
Cc1c(N2CC3CC(C3)C2)nc2ccc(Br)cc2c1C(=O)NCC(CCC(=O)O)c1ccccc1Cl (racemic) [Example 73, (+/−)-5-[({2-[3-Azabicyclo[3.1.1]hept-3-yl]-6-bromo-3-methylquinolin-4-yl}carbonyl)amino]-4-(2-chlorophenyl)pentanoic acid]	48
Cc1c(N2CC(F)(F)C2)nc2ccc(Br)cc2c1C(=O)NCC(CCC(=O)O)c1ccccc1Cl (racemic) [Example 75, (+/−)-5-({[6-Bromo-2-(3,3-difluoroazetidin-1-yl)-3-methylquinolin-4-yl]carbonyl}amino)-4-(2-chlorophenyl)pentanoic acid]	120
